What was measured:
ZDF rats = assay: Reversal of the diabetic phenotype in the ZDF rat by an insulin sensitizer; format: in vivo; conditions: LGD 1069 in food 0.3-30 mg/kg/day for 50 days from age 7 weeks
Procedure: Male diabetic fatty rats (Zucker diabetic fatty rats (ZDF rats)) are kept in an animal house with free access to food and water, the nyctohemeral rhythm being observed. The compound LGD 1069 is added to the food at a dose of 0.3, 1.0, 3.0, 10 or 30 mg/kg/day and administered for 50 days as from the age of 7 weeks. 4 animals are fed without the addition of LGD 1069: 2 ZDF and 2 ZLC. The animals are fasted and sacrificed the next day. The tissues are collected and frozen immediately in liquid nitrogen.

FATP5 = assay: Hepatic FATP5 expression (Northern blotting) in ZDF rats treated with LGD 1069; format: in vivo, rat; conditions: LGD 1069 in food 0.3-30 mg/kg/day for 50 days from age 7 weeks; Northern blot; FIG. 15
Procedure: Male diabetic fatty rats (Zucker diabetic fatty rats (ZDF rats)) are kept in an animal house with free access to food and water, the nyctohemeral rhythm being observed.
The compound LGD 1069 is added to the food at a dose of 0.3, 1.0, 3.0, 10 or 30 mg/kg/day and administered for 50 days as from the age of 7 weeks. 4 animals are fed without the addition of LGD 1069: 2 ZDF and 2 ZLC. The animals are fasted and sacrificed the next day. The tissues are collected and frozen immediately in liquid nitrogen.
The hepatic RNAs are extracted by the conventional technique derived from Chomczynski and Sacchi. The expression is analysed by Northern blotting with hybridization using a radioactive cDNA probe specific for FATP5.

## C=C(c1ccc(C(=O)O)cc1)c1cc2c(cc1C)C(C)(C)CCC2(C)C [RXR agonist, bexarotene]
ZDF rats
  development of diabetes: reverses the development of diabetes
FATP5
  Negative regulation of the expression of FATP5 in the liver of ZDF rats compared with ZLC rats: counteracted
